Values quoted from earlier work in US20050147629A1, “Pharmaceutical formulation comprising non-peptide renin inhibitor and surfactant” (priority 2002, published 2005).

Details: readily soluble = at least 1 g per 100 ml, poorly soluble = less than 1 g per 100 ml (b7)

SMILES: COCCCOc1cc(C[C@@H](C[C@H](N)[C@@H](O)C[C@H](C(=O)NCC(C)(C)C(N)=O)C(C)C)C(C)C)ccc1OC [formula Ia]
- solubility in water: very readily soluble in water
